Measurements published in patent publication US12357596B2, “Compounds for prevention and treatment of obesity and related disorders” (ABREXA PHARMACEUTICALS, INC., priority 2019, dated 2025).

Assay: 28-day once-daily oral gavage toxicity study with 14-day recovery (body weight, food consumption, clinical and anatomic pathology)
Type: in vivo
Conditions: for Decrease of group mean food consumption compared to Group 1 controls: Days 21 to 28
Method: J147 or vehicle was administered once daily to Sprague-Dawley rats via oral gavage for 28 consecutive days at a daily dose of 0, 30, 100 or 300 mg/kg. J174 was prepared in a vehicle formulation comprising 5% ethanol, 5% DMSO and 90% corn oil (v/v/v). Certified rodent diet and water was available ad libitum. Groups 1-4 contained 10 animals/sex/group. Groups 1 (control) and 4 (high dose) also included an additional 5 animals/sex/group for use as recovery animals. The recovery animals were maintained on study for a 14-day postdosing recovery period. Animals in Groups 1-4 were monitored for morbidity and mortality, clinical signs, detailed clinical observations, body weight, food consumption, ophthalmologic parameters, neurobehavioral assessment consisting of a Functional Observational Battery (FOB) and a motor activity test, hematology, coagulation, serum chemistry, and urinalysis parameters. Postmortem assessment included necropsy, measurement of selected organ weights, and microscopic evaluation of a standard set of tissues. Plasma samples for bioanalysis were collected on Days 1 and 28 from satellite toxicokinetic animals in Groups 5 through 8. Animals in these groups were euthanized following the last blood sampling and carcasses were discarded without examination. The study protocol is shown below in Table 1.

[1] = male rats, 30 mg/kg/day, Day 14 → 21
[2] = male rats, 30 mg/kg/day, Day 21 → 28
[3] = male rats, 30 mg/kg/day, Day −1 → 7
[4] = male rats, 100 mg/kg/day, Day 7 → 14
[5] = male rats, 100 mg/kg/day, Day 14 → 21
[6] = male rats, 100 mg/kg/day, Day 21 → 28
[7] = male rats, 100 mg/kg/day, Day 28
[8] = male rats, 100 mg/kg/day, Day −1 → 7
[9] = male rats, 300 mg/kg/day, Day 7 → 14
[10] = male rats, 300 mg/kg/day, Day 14 → 21
[11] = male rats, 300 mg/kg/day, Day 21 → 28
[12] = male rats, 300 mg/kg/day, Day 28
[13] = male rats, 300 mg/kg/day, Day −1 → 7
[14] = rats, both sexes, 300 mg/kg/day
[15] = rats, both sexes, 100 and 300 mg/kg/day

COc1cccc(/C=N/N(C(=O)C(F)(F)F)c2ccc(C)cc2C)c1 [J147]
Mean Bodyweight Gain [1]: 39.61 g | Mean Food Consumption [1]: 25.03 | Mean Bodyweight (male rats, 30 mg/kg/day, Day 21): 430.90 g | Mean Bodyweight Gain [2]: 34.51 g | Mean Food Consumption [2]: 25.13 | Mean Bodyweight (male rats, 30 mg/kg/day, Day 28): 465.41 g | Mean Bodyweight (male rats, 30 mg/kg/day, Day −1 (pre-dose)): 285.27 g | Mean Bodyweight Gain [3]: 53.64 g | Mean Food Consumption [3]: 23.90 | Mean Bodyweight Gain (male rats, 30 mg/kg/day, Day −1 → 28): 180.14 g | Mean Bodyweight (male rats, 30 mg/kg/day, Day −2 (pre-dose)): 278.60 g | Mean Bodyweight (male rats, 100 mg/kg/day, Day 7): 335.34 g | Mean Bodyweight Gain [4]: 41.14 d^2 g | Mean Food Consumption [4]: 21.47 dd^2 | Mean Bodyweight (male rats, 100 mg/kg/day, Day 14): 376.48 g | Mean Bodyweight Gain [5]: 33.50 g | Mean Food Consumption [5]: 23.65 | Mean Bodyweight (male rats, 100 mg/kg/day, Day 21): 409.98 g | Mean Bodyweight Gain [6]: 26.89 g | Mean Food Consumption [6]: 23.73 | Decrease of group mean body weight compared to Group 1 controls [7]: 5.9% | Mean Bodyweight [7]: 436.87 g | Mean Bodyweight (male rats, 100 mg/kg/day, Day −1 (pre-dose)): 286.67 g | Mean Bodyweight Gain [8]: 48.67 g | Mean Food Consumption [8]: 23.68 | Mean Bodyweight Gain (male rats, 100 mg/kg/day, Day −1 → 28): 150.20 g | Mean Bodyweight (male rats, 100 mg/kg/day, Day −2 (pre-dose)): 278.57 g | Decrease of group mean food consumption compared to Group 1 controls (male rats, 100 mg/kg/day): 4.9% | Levels of urinary ketones (male rats, 300 mg/kg/day): increased | Mean Food Consumption (male rats, 300 mg/kg/day for 28 days, Day 28 → 35 (recovery)): 26.98 | Mean Bodyweight Gain (male rats, 300 mg/kg/day for 28 days, Day 28 → 42 (recovery)): 50.60 g | Mean Bodyweight (male rats, 300 mg/kg/day for 28 days, Day 35 (recovery)): 415.68 dd^3 g | Mean Food Consumption (male rats, 300 mg/kg/day for 28 days, Day 35 → 42 (recovery)): 28.99 | Mean Bodyweight (male rats, 300 mg/kg/day for 28 days, Day 42 (recovery)): 446.14 d^4 g | Mean Bodyweight (male rats, 300 mg/kg/day, Day 7): 321.93 dd^2 g | Mean Bodyweight Gain [9]: 28.89 dd^3 g | Mean Food Consumption [9]: 20.24 dd^2 | Mean Bodyweight (male rats, 300 mg/kg/day, Day 14): 350.83 dd^2 g | Mean Bodyweight Gain [10]: 21.21 dd^3 g | Mean Food Consumption [10]: 21.50 dd^2 | Mean Bodyweight (male rats, 300 mg/kg/day, Day 21): 372.04 dd^2 g | Mean Bodyweight Gain [11]: 16.71 dd^3 g | Mean Food Consumption [11]: 20.78 dd^2 | Decrease of group mean body weight compared to Group 1 controls [12]: 16.2% | Mean Bodyweight [12]: 388.75 dd^2 g | Mean Bodyweight (male rats, 300 mg/kg/day, Day −1 (pre-dose)): 287.50 g | Mean Bodyweight Gain [13]: 34.43 dd^3 g | Mean Food Consumption [13]: 19.83 dd^2 | Mean Bodyweight Gain (male rats, 300 mg/kg/day, Day −1 → 28): 101.25 dd^3 g | Mean Bodyweight (male rats, 300 mg/kg/day, Day −2 (pre-dose)): 278.97 g | Decrease of group mean food consumption compared to Group 1 controls (male rats, 300 mg/kg/day): 16.7% | Mean serum triglyceride concentrations (male rats, 100 and 300 mg/kg/day): Decreased | Group mean weight gain from Day −1 to 28 (male rats, Group 2 (30 mg/kg/day)): 180 grams | Group mean weight gain from Day −1 to 28 (male rats, Group 3 (100 mg/kg/day)): 150 grams | Group mean weight gain from Day −1 to 28 (male rats, Group 4 (300 mg/kg/day)): 101 grams | Effects on serum triglyceride concentrations and red cell mass at the end of the 14-day recovery period (rats previously administered 300 mg/kg/day for 28 days): persisted | Alterations considered related to test article administration (rats, 30 mg/kg/day): no alterations | Organ weight, macroscopic or microscopic findings after recovery (rats, 300 mg/kg/day, Day 43 following 2-week treatment-free recovery): no J147-related organ weight, macroscopic or microscopic findings | Recovery of body weight and body weight gain (rats, 14-day recovery period): Full recovery | Motor activity portion of the Functional Observational Battery (FOB) (rats, Day 1, males at all dose levels, females at 100 and 300 mg/kg/day, not considered adverse): general decrease in activity | Subacute perivascular inflammation in the liver (microscopic) [14]: noted | Thymic lymphoid depletion [14]: noted | lowest-observed-adverse-effect-level (LOAEL) (rats, both sexes, 28-day oral gavage): 100 mg/kg/day | Body weight, body weight gain, and food consumption [15]: decreased | Food consumption compared to Group 1 controls [15]: decreased | Group mean thymus weights [15]: Decreases | Hepatocellular hypertrophy (microscopic) [15]: seen | Prothrombin time (rats, both sexes, all dose levels): decreased | Mean platelet and reticulocyte counts (rats, end of 28-day treatment, all dose levels, both sexes): increased | Mean red blood cell counts, hematocrit, and hemoglobin values (rats, end of 28-day treatment, males at all dose levels, females at 100 and 300 mg/kg/day): decreased | Terminal necropsy findings (rats, one or two animals at 300 mg/kg/day): enlarged liver and small thymus | J147-related effects on body weight and food consumption following cessation of treatment (rats, recovery period): reversible | Noteworthy clinical observations during the 28-day treatment period (rats, some animals of both sexes, 300 mg/kg/day): soft feces | Incidence of single cell necrosis of acinar cells in the pancreas (rats, both sexes at 300 mg/kg/day, males at 100 mg/kg/day): increased | Mean serum glucose concentrations (rats, males at 100 mg/kg/day, both sexes at 300 mg/kg/day): Decreased | Group mean liver weights (rats, males at all dose levels, females at 100 and 300 mg/kg/day): increased
